The source of these data is US11230547B2, “Purine inhibitors of human phosphatidylinositol 3-kinase delta” (Merck Sharp & Dohme Corp., priority 2017, dated 2022).

The target in experiment [1] is PI3Kdelta (Homo sapiens (Human), UniProt O00329). Kind of experiment: HTRF PI3K biochemical assay, delta isoform. As to conditions: 0.3 nM enzyme, 100 uM ATP, 5 uM PIP2, form screened per table. The method in brief:
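PI3Kδ at 0.3 nM preincubated 15 min with compound, then reacted 1 h at room temperature with 100 uM ATP and 5 uM PIP2. PIP3 product detected by competitive HTRF displacing biotin-PIP3 from GST-GRP1 PH domain, so signal falls with activity. 10-point 3-fold dose response.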
In general terms: In TR-FRET formats the signal depends on donor and acceptor labels being close together.

Experiment [2] has as its target PI3Kalpha (Homo sapiens (Human), UniProt P42336). Description: HTRF PI3K biochemical assay, alpha isoform (selectivity versus delta). As to conditions: relative ratio PI3K-alpha IC50 value / PI3K-delta IC50 value. In short, it runs like this: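 Recombinant human PI3Kα (0.5 nM) preincubated 15 min with compound, then reacted 1 h at room temperature with 100 uM ATP and 5 uM PIP2. PIP3 formation detected by HTRF competition with biotin-PIP3 for GST-GRP1 PH domain (Eu/APC, 665/620 nm); product lowers signal.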

PI3Kalpha, sequence (P42336 whole entry, the tested form may be a part, canonical isoform): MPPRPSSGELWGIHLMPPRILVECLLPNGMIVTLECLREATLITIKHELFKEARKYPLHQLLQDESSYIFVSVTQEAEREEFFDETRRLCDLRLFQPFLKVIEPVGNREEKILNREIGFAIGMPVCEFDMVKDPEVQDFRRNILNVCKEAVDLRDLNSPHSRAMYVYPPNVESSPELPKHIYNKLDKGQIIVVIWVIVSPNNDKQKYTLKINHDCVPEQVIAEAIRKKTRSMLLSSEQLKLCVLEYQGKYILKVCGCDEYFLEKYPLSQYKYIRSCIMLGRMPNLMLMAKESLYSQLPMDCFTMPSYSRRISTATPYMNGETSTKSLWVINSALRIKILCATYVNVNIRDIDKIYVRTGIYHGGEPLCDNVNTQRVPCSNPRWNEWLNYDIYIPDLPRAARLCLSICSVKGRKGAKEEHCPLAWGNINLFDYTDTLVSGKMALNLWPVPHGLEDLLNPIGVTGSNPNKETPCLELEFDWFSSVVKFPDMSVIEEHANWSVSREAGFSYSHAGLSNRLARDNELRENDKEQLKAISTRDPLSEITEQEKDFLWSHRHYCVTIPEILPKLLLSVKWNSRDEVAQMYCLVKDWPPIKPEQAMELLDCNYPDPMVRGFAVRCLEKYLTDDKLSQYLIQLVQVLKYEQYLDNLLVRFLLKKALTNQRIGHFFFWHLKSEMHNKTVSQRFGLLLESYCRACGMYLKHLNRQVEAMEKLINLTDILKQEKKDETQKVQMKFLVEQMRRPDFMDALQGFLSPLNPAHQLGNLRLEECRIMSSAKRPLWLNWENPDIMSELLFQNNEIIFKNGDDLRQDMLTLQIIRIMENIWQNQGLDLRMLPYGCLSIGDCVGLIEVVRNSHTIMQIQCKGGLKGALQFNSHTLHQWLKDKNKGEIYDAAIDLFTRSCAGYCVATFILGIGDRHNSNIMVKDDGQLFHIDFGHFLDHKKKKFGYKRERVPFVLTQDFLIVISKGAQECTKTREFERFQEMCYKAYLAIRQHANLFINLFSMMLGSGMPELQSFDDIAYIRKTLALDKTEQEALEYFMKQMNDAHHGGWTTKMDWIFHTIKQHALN
PI3Kalpha, sequence (P27986 whole entry partner, the tested form may be a part, canonical isoform): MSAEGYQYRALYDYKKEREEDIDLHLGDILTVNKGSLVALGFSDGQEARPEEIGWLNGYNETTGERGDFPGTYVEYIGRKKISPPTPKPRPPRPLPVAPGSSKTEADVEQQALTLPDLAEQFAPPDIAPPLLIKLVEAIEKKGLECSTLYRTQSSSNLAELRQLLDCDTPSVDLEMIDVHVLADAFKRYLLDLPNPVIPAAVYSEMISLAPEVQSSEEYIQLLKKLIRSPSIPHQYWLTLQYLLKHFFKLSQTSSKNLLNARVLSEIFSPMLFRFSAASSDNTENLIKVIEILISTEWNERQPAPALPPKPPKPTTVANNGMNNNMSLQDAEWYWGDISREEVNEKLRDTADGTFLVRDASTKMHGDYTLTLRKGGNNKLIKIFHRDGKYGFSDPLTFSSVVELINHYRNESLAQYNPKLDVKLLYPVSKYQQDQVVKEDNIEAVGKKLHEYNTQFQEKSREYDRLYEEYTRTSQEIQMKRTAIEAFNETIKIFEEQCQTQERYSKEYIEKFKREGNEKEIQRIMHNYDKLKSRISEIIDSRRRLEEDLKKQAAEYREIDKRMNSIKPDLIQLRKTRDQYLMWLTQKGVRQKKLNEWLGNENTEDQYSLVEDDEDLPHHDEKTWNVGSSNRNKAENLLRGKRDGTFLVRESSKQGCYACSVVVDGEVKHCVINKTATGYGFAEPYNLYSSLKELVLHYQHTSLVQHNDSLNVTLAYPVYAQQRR
PI3Kdelta, sequence (O00329 whole entry, the tested form may be a part, canonical isoform): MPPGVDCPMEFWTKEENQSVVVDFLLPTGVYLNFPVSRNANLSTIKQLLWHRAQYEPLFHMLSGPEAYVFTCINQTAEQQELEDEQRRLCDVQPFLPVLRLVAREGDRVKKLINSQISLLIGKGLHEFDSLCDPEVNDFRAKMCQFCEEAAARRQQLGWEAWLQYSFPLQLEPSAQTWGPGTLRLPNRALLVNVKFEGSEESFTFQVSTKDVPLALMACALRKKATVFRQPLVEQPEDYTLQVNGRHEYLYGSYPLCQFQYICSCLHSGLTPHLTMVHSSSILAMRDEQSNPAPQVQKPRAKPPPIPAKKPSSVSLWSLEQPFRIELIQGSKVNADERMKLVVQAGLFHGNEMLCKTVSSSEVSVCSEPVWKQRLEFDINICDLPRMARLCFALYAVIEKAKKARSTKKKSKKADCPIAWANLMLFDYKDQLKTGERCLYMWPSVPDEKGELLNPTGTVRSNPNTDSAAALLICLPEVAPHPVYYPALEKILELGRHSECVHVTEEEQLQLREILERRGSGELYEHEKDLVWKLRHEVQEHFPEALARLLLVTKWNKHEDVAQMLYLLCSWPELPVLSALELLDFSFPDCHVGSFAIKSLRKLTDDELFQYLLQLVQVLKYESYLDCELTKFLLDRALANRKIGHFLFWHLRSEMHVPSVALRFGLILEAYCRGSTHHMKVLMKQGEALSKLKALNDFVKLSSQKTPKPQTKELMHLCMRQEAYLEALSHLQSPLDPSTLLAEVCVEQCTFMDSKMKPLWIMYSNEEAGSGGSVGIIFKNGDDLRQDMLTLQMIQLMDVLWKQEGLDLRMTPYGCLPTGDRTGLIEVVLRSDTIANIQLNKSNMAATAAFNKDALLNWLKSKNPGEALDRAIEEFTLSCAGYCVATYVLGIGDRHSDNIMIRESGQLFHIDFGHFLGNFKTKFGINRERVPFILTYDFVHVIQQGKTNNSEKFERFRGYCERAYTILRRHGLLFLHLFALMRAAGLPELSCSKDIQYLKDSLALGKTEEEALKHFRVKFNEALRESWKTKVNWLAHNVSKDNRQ
PI3Kdelta, sequence (P27986 whole entry partner, the tested form may be a part, canonical isoform): as the sequence (P27986 whole entry partner, the tested form may be a part, canonical isoform) above

The term IC50 denotes the midpoint of a concentration-inhibition curve. Read a low IC50 as inhibition by little substance. In turn, `C[C@@H]1CN(c2ncc(C#CCO)c(-c3cnn(C)c3)n2)CCN1C(=O)C1CC1` [Compound 5-1, 3-{2-[(3R)-4-(cyclopropylcarbonyl)-3-methylpiperazin-1-yl]-4-(1-methyl-1H-pyrazol-4-yl)pyrimidin-5-yl}prop-2-yn-1-ol] had an IC50 in experiment [1] of 19 nM. Further, in experiment [2], the “Selectivity versus PI3Kalpha” value was greater than 10.
The like results for `C[C@@H]1CN(c2nc(C#N)cc(-c3cnn(C)c3)n2)CCN1C(=O)C1CC1` [Compound 5-2, 2-[(3R)-4-(cyclopropylcarbonyl)-3-methylpiperazin-1-yl]-6-(1-methyl-1H-pyrazol-4-yl)pyrimidine-4-carbonitrile] were, in that order, 240 nM and greater than 10.
The like results for `C[C@@H]1CN(c2cc(C#N)nc(-c3cnn(C)c3)n2)CCN1C(=O)C1CC1` [Compound 5-3, 6-[(3R)-4-(cyclopropylcarbonyl)-3-methylpiperazin-1-yl]-2-(1-methyl-1H-pyrazol-4-yl)pyrimidine-4-carbonitrile] were, in that order, 240 nM and greater than 10.
The like results for `C[C@@H]1CN(c2ncc(C#N)c(-c3cnn(C)c3)n2)CCN1C(=O)C1CC1` [Compound 5-4, 2-[(3R)-4-(cyclopropylcarbonyl)-3-methylpiperazin-1-yl]-4-(1-methyl-1H-pyrazol-4-yl)pyrimidine-5-carbonitrile] were, in that order, 21 nM and greater than 10.
With `CC(C)c1cnc(-c2cnc(N3CCN(C(=O)C4CC4)[C@H](C)C3)nc2-c2cnn(C)c2)o1` [Compound 5-5, 2-[(3R)-4-(cyclopropylcarbonyl)-3-methylpiperazin-1-yl]-5-[5-(1-methylethyl)-1,3-oxazol-2-yl]-4-(1-methyl-1H-pyrazol-4-yl)pyrimidine], the IC50 in experiment [1] worked out at 410 nM. Moreover, in experiment [2], the “Selectivity versus PI3Kalpha” value was greater than 10.
Turning to `CC(C)C[C@@H]1CN(c2nc(-c3cnn(C)c3)ncc2C#N)CCN1C(=O)C1CC1` [Compound 5-6, 4-[(3R)-4-(cyclopropylcarbonyl)-3-(2-methylpropyl)piperazin-1-yl]-2-(1-methyl-1H-pyrazol-4-yl)pyrimidine-5-carbonitrile], the IC50 in experiment [1] worked out at 190 nM. Further, the “Selectivity versus PI3Kalpha” value in experiment [2] is reported as greater than 10.
Take `Cn1cc(-c2ncc(C#N)c(N3CCN(C(=O)C4CC4)[C@H](CO)C3)n2)cn1` [Compound 5-7, 4-[(3S)-4-(cyclopropylcarbonyl)-3-(hydroxymethyl)piperazin-1-yl]-2-(1-methyl-1H-pyrazol-4-yl)pyrimidine-5-carbonitrile]: the IC50 in experiment [1] is 760 nM. Further, in experiment [2], the “Selectivity versus PI3Kalpha” value is greater than 10.
For `CC(C)C#Cc1cnc(N2CCN(C(=O)C3CC3)[C@H](C)C2)nc1-c1cnn(C)c1` [Compound 5-8, 2-[(3R)-4-(cyclopropylcarbonyl)-3-methylpiperazin-1-yl]-5-(3-methylbut-1-yn-1-yl)-4-(1-methyl-1H-pyrazol-4-yl)pyrimidine], in experiment [1], the IC50 amounted to 12 nM. The “Selectivity versus PI3Kalpha” value in experiment [2] was greater than 10.
The like results for `C#Cc1cnc(N2CCN(C(=O)C3CC3)[C@H](C)C2)nc1-c1cnn(C)c1` [Compound 5-9, 2-[(3R)-4-(cyclopropylcarbonyl)-3-methylpiperazin-1-yl]-5-ethynyl-4-(1-methyl-1H-pyrazol-4-yl)pyrimidine] were, in that order, 50 nM and greater than 10.
For `CSc1cnc(N2CCN(C(=O)C3CC3)[C@H](C)C2)nc1-c1cnn(C)c1` [Compound 5-10, 2-[(3R)-4-(cyclopropylcarbonyl)-3-methylpiperazin-1-yl]-4-(1-methyl-1H-pyrazol-4-yl)-5-(methylsulfanyl)pyrimidine], the IC50 in experiment [1] is 340 nM. In experiment [2], the “Selectivity versus PI3Kalpha” value is greater than 10.
The like results for `C[C@@H]1CN(c2ncc(C(F)F)c(-c3cnn(C)c3)n2)CCN1C(=O)C1CC1` [Compound 5-11, 2-[(3R)-4-(cyclopropylcarbonyl)-3-methylpiperazin-1-yl]-5-(difluoromethyl)-4-(1-methyl-1H-pyrazol-4-yl)pyrimidine] were, in that order, 370 nM and greater than 10.
In experiment [1], `CCOC(=O)c1cnc(N2CCN(C(=O)C3CC3)[C@H](C)C2)nc1-c1cnn(C)c1` [Compound 5-12, ethyl 2-[(3R)-4-(cyclopropylcarbonyl)-3-methylpiperazin-1-yl]-4-(1-methyl-1H-pyrazol-4-yl)pyrimidine-5-carboxylate] displayed an IC50 of 180 nM. The “Selectivity versus PI3Kalpha” value in experiment [2] is recorded as greater than 10.
`C[C@@H]1CN(c2nc(-c3cnn(C)c3)ncc2Cl)CCN1C(=O)C1CC1` [Compound 5-13, 5-chloro-4-[(3R)-4-(cyclopropylcarbonyl)-3-methylpiperazin-1-yl]-2-(1-methyl-1H-pyrazol-4-yl)pyrimidine] yielded an IC50 in experiment [1] of 620 nM. In addition, in experiment [2], the “Selectivity versus PI3Kalpha” value was greater than 10.
The like results for `C[C@@H]1CN(c2nc(-c3cnn(C)c3)nc(N)c2C#N)CCN1C(=O)C1CC1` [Compound 6-1, 4-amino-6-[(3R)-4-(cyclopropylcarbonyl)-3-methylpiperazin-1-yl]-2-(1-methyl-1H-pyrazol-4-yl)pyrimidine-5-carbonitrile] were, in that order, 130 nM and greater than 10.
Taken in the same sequence, the figures for `CC(C)NC(=O)Nc1nc(-c2cnn(C)c2)nc(N2CCN(C(=O)C3CC3)[C@H](C)C2)c1C#N` [Compound 6-2, 1-{5-cyano-6-[(3R)-4-(cyclopropylcarbonyl)-3-methylpiperazin-1-yl]-2-(1-methyl-1H-pyrazol-4-yl)pyrimidin-4-yl}-3-(1-methylethyl)urea] were 5.6 nM and greater than 10.
Taken in the same sequence, the figures for `CC(=O)Nc1nc(-c2cnn(C)c2)nc(N2CCN(C(=O)C3CC3)[C@H](C)C2)c1C#N` [Compound 6-3, N-{5-cyano-6-[(3R)-4-(cyclopropylcarbonyl)-3-methylpiperazin-1-yl]-2-(1-methyl-1H-pyrazol-4-yl)pyrimidin-4-yl}acetamide] were 480 nM and greater than 10.
Turning to `C[C@@H]1CN(c2nc(-c3cnn(C)c3)nc(NCC(F)(F)F)c2C#N)CCN1C(=O)C1CC1` [Compound 6-4, 4-[(3R)-4-(cyclopropylcarbonyl)-3-methylpiperazin-1-yl]-2-(1-methyl-1H-pyrazol-4-yl)-6-[(2,2,2-trifluoroethyl)amino]pyrimidine-5-carbonitrile], in experiment [1], half-maximal inhibition (IC50) was put at 8.3 nM. Moreover, the “Selectivity versus PI3Kalpha” value in experiment [2] is listed as greater than 10.
The like results for `C[C@@H]1CN(c2nc(-c3cnn(C)c3)nc(Cl)c2C#N)CCN1C(=O)C1CC1` [Compound 6-5, 4-chloro-6-[(3R)-4-(cyclopropylcarbonyl)-3-methylpiperazin-1-yl]-2-(1-methyl-1H-pyrazol-4-yl)pyrimidine-5-carbonitrile] were, in that order, 140 nM and greater than 10.
The like results for `CCc1nc(-c2cnn(C)c2)nc(N2CCN(C(=O)C3CC3)[C@H](C)C2)c1C#N` [Compound 6-6, 4-[(3R)-4-(cyclopropylcarbonyl)-3-methylpiperazin-1-yl]-6-ethyl-2-(1-methyl-1H-pyrazol-4-yl)pyrimidine-5-carbonitrile] were, in that order, 220 nM and greater than 10.
